{"source": "patent US9242883B2", "about": "“Pre-treatment of sludge” (THE UNIVERSITY OF QUEENSLAND, priority 2011, dated 2016)", "key": {"[1]": {"system": "secondary sludge", "conditions": "famine conditions, during FNA treatment (FIG. 4)", "description": "NH4+ release rate under famine conditions is an indication of the hydrolysis of intracellular compounds release during the decay of dying cells. This hydrolysis is taken place by the activity of other living microorganisms present in the sludge."}, "[2]": {"system": "bacteria in a full-scale sludge", "conditions": "FNA treated, 48 hours, 500 mgNO2-N/L, pH 6.0, 29 images", "protocol": "Similar tests were performed on a full-scale sludge. However, no activity tests were carried out. […] The nitrite concentration applied to the experimental reactor was 500 mgNO2-N/L. pH was maintained at 6.0 in both the control and experimental reactors."}, "[3]": {"system": "AOB, NOB and OHOs", "conditions": "FNA 0.22-2.47 mgN/L, pH 6, 24 h exposure", "method": "Sludge was taken out from the parent reactor (SBR) at the end of an aerobic period and then transferred into a batch reactor. Afterwards, ammonium and nitrite stock solutions were added to the batch reactor, resulting in the ammonium and nitrite concentrations of 25 mg NH4-N/L and 20 mg NO2-N/L, respectively. Air was supplied during the whole experiment period (DO was not limiting, i.e. >3 mg/L). pH was controlled in the range of 7.5-8 during the whole experimental period. The activities of AOB and NOB were determined as biomass-specific nitrite+nitrate and nitrate production rates, respectively.\nSludge was taken out from the parent reactor at the end of an aerobic period and then transferred into a batch reactor. Afterwards, sodium acetate and ammonium stock solutions were added to the batch reactor, resulting in the COD and ammonium concentrations of 150 mg COD/L and 20 NH4-N/L, respectively. Air was supplied during the whole experiment period (DO was not limiting, i.e. >3 mg/L). pH was controlled in the range of 7.5-8 during the whole experimental period. The aerobic activity of OHO was determined as biomass-specific COD consumption rates.\nThe experimental conditions applied in batch testing are set out in Table 6."}, "[4]": {"system": "secondary sludge (enriched methonal-utilising denitrifiers culture)", "protocol": "(§1) In general, primary sludge is readily hydrolysable (Mahmood and Elliott, 2006; Foladori et al., 2010). […] A series of batch tests were conducted through the use of an enriched methonal-utilising denitrifiers culture, which was employed as secondary sludge in this study."}, "[5]": {"system": "secondary sludge (denitrifying microorganisms)", "protocol": "as §1"}, "[6]": {"system": "denitrifying biomass", "conditions": "methanol sludge, experimental reactor, 48 hours, FNA approx. 0.97 ppm, pH 6; 16 images", "protocol": "2. A batch experiment was performed at pH 6 for initial biomass activity determination. At the beginning of the test, nitrate and methanol were added. Liquid phase samples were taken every 15 minutes for the analysis of nitrate and methanol. The consumption rates of methanol and nitrate were determined. All other batch tests described below were also conducted at pH 6. 3. Fresh sludge of 2 L was removed from the SBR at the end of a cycle, and equally divided into two batch reactors, namely the control and the experimental reactors. • a. The sludge in the control reactor was kept at pH 6 under mixed conditions for 48 hours; • b. The sludge in the experimental reactor was kept at pH 6 under mixed conditions for 48 hours. […] 4. 24 hours after the above conditions were started, sludge samples of 250 mL each were removed from both the control and the experimental reactors, and batch experiments as described in Step 2 were performed. […] Sludge samples were also removed at 48 hours from both reactors to quantify the live/dead cells using the Live/Dead BacLight Bacterial Viability assay. […] The methanol and nitrate consumptions rates at the end of Day 3, Day 4 and Day 7 were measured through measuring the nitrate and methanol concentrations over a period over one hour each time. […]"}, "[7]": {"protocol": "In this experiment, a lab-scale sequencing batch reactor (SBR) with a working volume of 8 L was used in this study. The SBR was operated with a cycle time of 6-h, consisting of 10 min anoxic feed, 70 min anoxic reaction, 225 min aerobic reaction, 5 min sludge wasting, 45 min settling and 5 min decanting periods. In each cycle, 2 L of synthetic wastewater containing 400 mg COD and 50 mgN/L TKN including 40 mgNH4+-N/L, made from milk powder and ammonium chloride, along with other trace elements, was pumped into the SBR in the 10 min feed period, resulting in a hydraulic retention time (HRT) of 24 h. Before settling, around 133 ml of mixed liquor was wasted, giving rise to a sludge retention time of 15 days. The SBR was operated at a temperature of 18±2° C., with DO being controlled between 1.5-2.0 mg/L by a programmable logic controller (PLC) in the aerobic period.\n50% of the wasted mixed liquor was treated by 2.0 mg HNO2-N/L for approximately 24 h, 30 h, 36 h and 42 h, respectively.\nThe sludge wasted from the SBR was allowed to settle. […] The other 50% of the sludge was sent to disposal.\nA control SBR operating under identical conditions was also fed with the same wastewater, but there was no recycle of any sludge to this reactor."}, "[8]": {"system": "denitrifying biomass", "conditions": "for methanol consumption rate / nitrate consumption rate / methanol consumption rate, activity recovery / nitrate consumption rate, activity recovery: experimental reactor", "protocol": "Methanol provided the carbon source and nitrate provided the electron acceptor. The following procedure was followed:\n1. Sludge removed from the denitrifying SBR (sequencing batch reactor). The biomass was enriched for 5 months in an 8 L reactor with methanol as the carbon source and nitrate as the electron acceptor.\n2. A batch experiment was performed at pH 6 for initial biomass activity determination. At the beginning of the test, nitrate and methanol were added. Liquid phase samples were taken every 15 minutes for the analysis of nitrate and methanol. The consumption rates of methanol and nitrate were determined. All other batch tests described below were also conducted at pH 6. 3. Fresh sludge of 2 L was removed from the SBR at the end of a cycle, and equally divided into two batch reactors, namely the control and the experimental reactors. • a. The sludge in the control reactor was kept at pH 6 under mixed conditions for 48 hours; • b. The sludge in the experimental reactor was kept at pH 6 under mixed conditions for 48 hours. […] 4. 24 hours after the above conditions were started, sludge samples of 250 mL each were removed from both the control and the experimental reactors, and batch experiments as described in Step 2 were performed. Before the addition of nitrate and methanol, the sludges were washed with effluent from the parent SBR to ensure that both sludge samples were nitrite-free. 5. The above tests were repeated at 48 hours. 6. Sludge samples were also removed at 48 hours from both reactors to quantify the live/dead cells using the Live/Dead BacLight Bacterial Viability assay. 7. At 48 hours, the experimental reactor was washed with the effluent from the parent SBR to remove the residual nitrite. Nitrate and methanol were then added to the reactor resulting in concentrations of […] and 150 mg/L, respectively. The methanol and nitrate consumptions rates at the end of Day 3, Day 4 and Day 7 were measured through measuring the nitrate and methanol concentrations over a period over one hour each time. […] Experiments with Full-Scale Sludge"}, "[9]": {"conditions": "Day 1 of exposure, 500 mg NO2-N/L, pH 6, FNA approx. 0.97 ppm"}, "[10]": {"conditions": "Day 2 (48 h exposure; time when recovery started), FNA approx. 0.97 ppm, pH 6"}, "[11]": {"conditions": "Day 3, after 48 h FNA exposure and nitrite wash-out"}, "[12]": {"conditions": "Day 4, after 48 h FNA exposure and nitrite wash-out"}, "[13]": {"conditions": "Day 7, after 48 h FNA exposure and nitrite wash-out"}}, "note": "“And” between values parts separate entries of the source, which are not always exact repeats. Equal values may be shown once. Read-outs that look alike come from different tables or passages of the source.", "data": [{"compound": "O=NO", "note": "[FNA, free nitrous acid]", "values": [{"measurement": "NH4+ release rate, dependency on FNA concentration", "setting": "[1]", "result": "decrease"}, {"measurement": "Average (% dead cells)", "setting": "[2]", "result": 63.6, "unit": "%"}, {"measurement": "reduction of NOB and OHO compared to AOB", "setting": "[3]", "result": "significantly greater reduction in NOB"}, {"measurement": "live cell fraction, effect of exposure time", "setting": "[4]; 48 h of exposure vs shorter, biggest difference at highest FNA concentrations", "result": "Smaller live cell fraction"}, {"measurement": "fraction of viable cells, dependency on FNA concentration", "setting": "[4]; exposure 8 h, 24 h, 48 h (FIG. 3)", "result": "decreased with increasing FNA concentration"}, {"measurement": "biomass (denitrification) activity recovery", "setting": "[5]; longest exposure time to FNA, even at lowest FNA concentration", "result": "almost negligible"}, {"measurement": "biomass (denitrification) activity recovery", "setting": "[5]; lower exposure time, 8 h to FNA", "result": "displays a recovery"}, {"measurement": "Average (% dead cells)", "setting": "[6]", "result": 40.4, "unit": "%"}, {"measurement": "MLSS Predicted if FNA did not improve sludge degradability", "setting": "[7]; FNA reactor, steady state", "result": 2369, "unit": "mg/L"}, {"measurement": "MLVSS Predicted if FNA did not improve sludge degradability", "setting": "[7]; FNA reactor, steady state", "result": 2274, "unit": "mg/L"}, {"measurement": "FNA treated sludge degraded in the reactor", "setting": "[7]; mass balance analysis of MLSS and MLVSS", "result": "approximately 75%"}, {"measurement": "loss of biomass activity", "setting": "[8]; FNA approximately 1 ppm for 48 hours", "result": 99, "unit": "%"}, {"measurement": "methanol consumption rate", "setting": "[8]; [9]", "result": 0.051, "unit": "mg Methanol/gVSS*min"}, {"measurement": "nitrate consumption rate", "setting": "[8]; [9]", "result": 0.014, "unit": "mg N—NO3^−/gVSS*min"}, {"measurement": "methanol consumption rate", "setting": "[8]; [10]", "result": "0.0 mg Methanol/gVSS*min and 0 mg Methanol/gVSS*min"}, {"measurement": "nitrate consumption rate", "setting": "[8]; [10]", "result": 0.004, "unit": "mg N—NO3^−/gVSS*min"}, {"measurement": "methanol consumption rate, activity recovery", "setting": "[8]; [11]", "result": 0.133, "unit": "mg Methanol/gVSS*min"}, {"measurement": "nitrate consumption rate, activity recovery", "setting": "[8]; [11]", "result": 0.004, "unit": "mg N—NO3^−/gVSS*min"}, {"measurement": "methanol consumption rate, activity recovery", "setting": "[8]; [12]", "result": 0.067, "unit": "mg Methanol/gVSS*min"}, {"measurement": "nitrate consumption rate, activity recovery", "setting": "[8]; [12]", "result": 0.022, "unit": "mg N—NO3^−/gVSS*min"}, {"measurement": "methanol consumption rate, activity recovery", "setting": "[8]; [13]", "result": 0.235, "unit": "mg Methanol/gVSS*min"}, {"measurement": "nitrate consumption rate, activity recovery", "setting": "[8]; [13]", "result": 0.089, "unit": "mg N—NO3^−/gVSS*min"}]}]}
